Marks after values point to notes of the source that are not given here.
Tests used:
[1] = system: bleomycin-induced interstitial pneumonia (pulmonary fibrosis) model; assay: Pulmonary fibrosis level by tissue staining (Aschcroft score) in bleomycin-induced model; format: in vivo, mouse; settings: day 40
Method: (§1) Female C57BL/6 mice (about 15 g, 6-week-old) in 4 mice per group (n=4) were intraperitoneally administered with bleomycin 5 times a day every other day (total dose: 200 mg/kg) to prepare a model with bleomycin-induced interstitial pneumonia (pulmonary fibrosis).
(§2) Using the bleomycin-induced interstitial pneumonia (pulmonary fibrosis) model prepared in Experimental Example 1, the effect of the present invention on induced interstitial pneumonia (pulmonary fibrosis) was examined.
(§3) Y-27632 was intraperitoneally administered immediately before bleomycin administration from the first day of bleomycin administration (0th) to day 8 (5th administration), and thereafter until day 40, by way of a single, alternate-day administration. At day 40, the level of fibrosis was checked by hydroxyproline content and tissue staining. The hydroxyproline content was measured according to the report of Tran et al. (Tran et al., J. Clin. Invest., 99: 608-617, 1997). The degree of fibrosis by tissue staining was evaluated by the Aschcroft score (Aschcroft et al., J. Clin. Pathol., 41: 467-70, 1988).
Y-27632 suppressed the increase of Aschcroft score due to bleomycin administration at the dose of not less than 10 μg/kg (Table 2). In the Table, *:p<0.05, **:p<0.01.

fibroblast (NIH3T3 cell) = assay: Cell chemotaxis (Boyden chamber), NIH3T3 cell; format: cell-based; settings: Mus musculus, 2 h; NIH3T3 cells, migration by PDGF-BB (10 ng/ml), 37° C. 120 min, n=6, mean±SEM; read-out: IC50 of suppression of migration
Method: (§4) Mouse alveolar macrophage-derived cell line (MH-S cell), fibroblast (NIH3T3 cell) and mouse neutrophil were used. Casein was intraperitoneally administered to the mouse and the mouse neutrophil was isolated from ascites thereof after 6 h. The cell chemotaxis was measured by a Boyden chamber (chemotaxicell, KURABO, Japan). The pore size of the filter used was 5 μm for MH-S cell and neutrophil, and 8 μm for NIH3T3 cell. As a chemotactic factor, lipopolysaccharide (LPS, E.coli: B-4, Sigma, St Louis, Mo., USA) was used for MH-S cell, mouse interleukin 1β (IL-1β, Genzyme/techne, USA) was used for neutrophil, and a […] (PDGF-BB, UBI, Lake Placid, USA) was used for NIH3T3 cell. The chemotactic factors were added to a lower layer and Y-27632 were added to a higher layer at various concentrations. The reaction was carried out at 37° C. for 120 min for MH-S cell and NIH3T3 cell and 37° C. for 90 min for neutrophil. After the completion of the reaction, migrated cells were stained with Giemsa (Muto, CO., Ltd, Japan) and the cells were counted. The value is in mean±SEM.

mouse neutrophil = assay: Cell chemotaxis (Boyden chamber), mouse neutrophil; format: cell-based; settings: 1.5 h, neutrophils, migration by IL-1. (5 ng/ml), 37° C. 90 min, n=6, mean±SEM, read-out: IC50 of suppression of migration
Method: as §4

[2] = system: bleomycin-induced interstitial pneumonia (pulmonary fibrosis) model; assay: Hydroxyproline content in bleomycin-induced interstitial pneumonia (pulmonary fibrosis) model; format: in vivo, mouse; settings: day 40
Method: as §1, §2, §3
The suppression percentage was calculated based on the bleomycin alone administration group as 0% suppression, and the physiological saline administration group as 100% suppression.

[3] = system: Mouse alveolar macrophage-derived cell line (MH-S cell); assay: Cell chemotaxis (Boyden chamber), MH-S cell; format: cell-based; settings: 2 h, MH-S cells, migration by LPS (1 μg/ml), 37° C. 120 min, n=6, mean±SEM, read-out: IC50 of suppression of migration
Method: as §4

[4] = system: bleomycin-induced interstitial pneumonia (pulmonary fibrosis) model; assay: Number of inflammatory cells in bronchoalveolar lavage fluid (BALF) in bleomycin-induced model; format: in vivo, mouse
Method: as §1
Using the pulmonary fibrosis model administered with bleomycin as in Experimental Example 1, the effect of Y-27632 on the number of various inflammatory cells in BALF was examined.
The dose of Y-27632 was administered every other day at the lo dose of 100 μg/kg in the same manner as in Experimental Example 2. BALF was recovered at day 7, day 14, day 21 and day 40 from the start of the bleomycin administration, and the number of total cells, macrophages, lymphocytes and neutrophils was counted (n=5). The number of total cells was measured by a hemocytometer. Smear preparations of the various cells in BALF were prepared by cytospin (Auto Smer CF-12D, Chiyoda seisakusho, Tokyo, Japan), stained with May-Gruenwald and subjected to the counting under a microscope.
The results are shown in mean±SEM (n=5). For the test, (Satical analysis was performed One-way ANOVA test followed by Fisher's least significance test) was performed (*p<0.05; BLM group vs Y-27632 group) (§p<0.05; BLM group vs Normal group) (+p<0.05; Y-27632 group vs Normal group).

ROCK-II gene = assay: Expression of ROCK-II gene in the lung, real time quantitative RT-PCR; format: in vivo, mouse
Method: as §1
The expression of ROCK-II gene in the lung at 7, 14, 21 and 40 days after the start of the bleomycin administration was measured, and so was the value of an animal free of bleomycin administration. The amount of the expression of the ROCK-II gene was measured according to a real time quantitative RT-PCR method. As the primer, the following sequence was used [forward: CATGGTGCATTGCGACACA (SEQ ID No. 1), reverse: […] (SEQ ID No. 2)]. The amount of expression of the ROCK-II gene was expressed relatively in [(Rock-II m RNA)/(GAPDH m RNA)] using the expression amount of GAPDH (glyceraldehyde-3-phosphate dehydrogenase) gene as a standard. The results are shown in mean±SEM (n=4). For the test, (Satical analysis was performed One-way ANOVA test followed by Fisher's least significance test) was performed.

[5] = Y-27632 alone 1000 μg/kg (no bleomycin)
[6] = Y-27632 100 μg/kg every other day vs BLM group, days 7-40

C[C@@H](N)[C@H]1CC[C@H](C(=O)Nc2ccncc2)CC1 [Y-27632, (+)-trans-4-(1-aminoethyl)-1-(4-pyridylcarbamoyl)cyclohexane 2HCl.1H2O]
Aschcroft score (mean ± standard error) [1, 5]: 1.33 ± 0.21
Aschcroft score (mean ± standard error) ([1]; bleomycin + Y-27632 0.1 μg/kg): 2.79 ± 0.26
Aschcroft score (mean ± standard error) ([1]; bleomycin + Y-27632 10 μg/kg, p<0.01): 1.85 ± 0.26**
Aschcroft score (mean ± standard error) ([1]; bleomycin + Y-27632 100 μg/kg, p<0.05): 1.98 ± 0.41*
Dose suppressing the increase of Aschcroft score due to bleomycin administration [1]: not less than 10 μg/kg
IC50 (fibroblast (NIH3T3 cell)): 1600 ± 500 nM
IC50 (mouse neutrophil): 8.4 ± 2.1 µM
Suppression (%) of the increase of hydroxyproline content [2, 5]: 92.1%
Suppression (%) of the increase of hydroxyproline content ([2]; bleomycin + Y-27632 0.01 μg/kg i.p. alternate-day): −10.6%
Suppression (%) of the increase of hydroxyproline content ([2]; bleomycin + Y-27632 0.1 μg/kg i.p. alternate-day): 28.2%
Suppression (%) of the increase of hydroxyproline content ([2]; bleomycin + Y-27632 1 μg/kg i.p. alternate-day): 30.0%
Suppression (%) of the increase of hydroxyproline content ([2]; bleomycin + Y-27632 10 μg/kg i.p. alternate-day): 38.6%
Suppression (%) of the increase of hydroxyproline content ([2]; bleomycin + Y-27632 100 μg/kg i.p. alternate-day): 53.8%
Effect on the increase of hydroxyproline content due to bleomycin administration ([2]; i.p. alternate-day): dose-dependently suppressed
IC50 [3]: 4.8 ± 2 µM
Number of macrophages in BALF [4, 6]: significantly lower results than BLM group
Number of neutrophils in BALF [4, 6]: significantly lower results than BLM group
Number of total cells in BALF [4, 6]: significantly lower results than BLM group
Lymphocyte counts in BALF ([4]; Y-27632 100 μg/kg every other day, BLM, Y-27632 and Normal groups): did not show a significant difference among 3 groups

bleomycin
Aschcroft score (mean ± standard error) ([1]; bleomycin alone (total dose 200 mg/kg i.p.)): 3.54 ± 0.43
Expression amount of ROCK-II gene (ROCK-II mRNA/GAPDH mRNA) vs bleomycin non-administration group (ROCK-II gene; day 7 and day 21, bleomycin total dose 200 mg/kg i.p.): significantly high
Increase of expression amount of ROCK-II gene relative to bleomycin non-administration group (ROCK-II gene; day 21, bleomycin total dose 200 mg/kg i.p.): about 9 times

— patent US6844354B1, “Agent for prophylaxis and treatment of interstitial pneumonia and pulmonary fibrosis” (Mitsubishi Pharma Corporation, priority 1999, dated 2005)
